Entries after “also recorded” stand apart in the source; their conditions may differ. One block for each compound: values may come before it.
Key:
[1] = test system: A2780 and HSMC cells; experiment: Viability of cells exposed to stand-alone N-hydroxypyrroline or nitroxide (MTT); assay type: cell-based, human; details: 24 h
Description: (§1) Cell viability was determined by a colorimetric assay using MTT. In the mitochondria of living cells, yellow MTT undergoes a reductive conversion to formazan, giving a purple color. Cells, grown to […] confluence in 75-mm flasks, were trypsinized, counted, seeded in 96-well plates with an average population of 7000 cells/well, incubated overnight, and then treated with the DAPs (H-4073, HO-3867, H4318, or HO-4200; […]) for 24 h. All experiments were done using eight replicates and repeated at least three times. Cell viability was expressed as the percentage of MIT viability of untreated cells.
To determine the role of the N-hydroxypyrroline function in the cytotoxicity, we additionally evaluated the effects of 3-CPH (a stand-alone analog of N-hydroxypyrroline) and 3-CP (a nitroxide version 3-CPH) on A27180 and HSMC cells. […] Overall the viability results implicate the diarylidenyl piperidone group in inducing cytotoxicity and the N-hydroxypyrroline group in protecting noncancerous cells.

[2] = compared with cisplatin and curcumin; cited from earlier work
[3] = test system: A2780 cells; experiment: Cell viability by MTT assay, A2780 cells; assay type: cell-based, human; details: 24 hours, dose series
Description: (§2) Cell viability was determined by a colorimetric assay using MTT. In the mitochondria of living cells, yellow MTT undergoes a reductive conversion to formazan, producing a purple color. Cells, grown to […] confluence in 75-mm flasks, were trypsinized, counted, seeded in 96-well plates with an average population of 7,000 cells per well, incubated overnight, and then treated with curcumin, H-4073, or HO-3867 for 24 hours. All experiments were done using eight replicates and, repeated at least thrice.

[4] = test system: A2780, A2780R, MCF-7, HCT-116, PC-3, HepG2, A549, and SCC4 human cancer cell lines; experiment: Cytotoxicity of DAPs to cancer cells (MTT); assay type: cell-based; details: 10 μM, 24 h
Description: as §1

[5] = test system: hOSE cells; experiment: Cell viability by MTT assay, noncancerous hOSE control cells; assay type: cell-based, human; details: 20 μmol/L
Description: as §2

[6] = test system: A2780 and other cancer cells; experiment: Metabolic conversion to nitroxide in cancer cells (EPR); assay type: in vitro ADME, human; details: 37° C., EPR
From the text: The N-hydroxypyrroline (—NOH) moiety is capable of undergoing a reversible one-electron oxidation to its nitroxide form (—NO; FIG. 9A), which is paramagnetic and detectable by EPR spectroscopy.

[7] = test system: A2780 cells; experiment: Cell proliferation by clonogenic assay; assay type: cell-based, human; details: 24 hours treatment, 7 days growth
Description: Cell survival was assessed by clonogenic assay. Cells at […] confluence were trypsinized, rinsed, seeded onto 60-mm dishes (5×10^4 cells per dish), grown for 24 hours at 37° C., and treated afterward with H-4073 or HO-3867 for 24 hours. Nontreated cells served as controls. After treatment, the cells were washed twice with PBS, trypsinized, counted, and plated in 60-mm dishes in triplicate and incubated for an additional 7 days. The colonies were then stained with crystal violet (in ethyl alcohol) and counted using an automated colony counter (ColCount, Oxford Optronix). Each experiment was repeated at least five times.

[8] = Superoxide radical-scavenging by EPR (xanthine/xanthine oxidase, DEPMPO competition); details: 100 μM compound versus 1 mM DEPMPO
Description: Electron paramagnetic resonance (EPR) spectroscopy was used to quantitatively determine the relative superoxide-scavenging ability of the DAPs in comparison with DEPMPO, a known superoxide scavenger. Superoxide radicals were generated using an aerated solution of PBS (pH 7.4) containing xanthine (0.2 mM), xanthine oxidase (0.02 U/ml), and diethylenetriamine pentaacetic acid (0.1 mM). The superoxide radicals (O2^−) generated by the xanhine-xanthine oxidase reaction were reacted with DEPMPO (1 mM) to form a paramagnetic adduct (DEPMPO-OOH), which was detected using X-band (9.8 GHz) EPR spectroscopy. In separate experimental groups, […], or SOD (500 U/ml) was added to the reaction mixture. […] The generation of the DEPMPO-OOH adduct was measured at 10 min after initiation of the reaction.
Both N-hydroxypyrroline and nitroxide have antioxidant properties including SOD- and catalase-mimetic activity. Therefore, we determined the superoxide radical-scavenging ability of DAPs using a competitive reaction in the presence of DEPMPO. Superoxide radicals were generated using an aerobic solution of xanthine and xanthine oxidase and detected as DEPMPO-OOH adduct by EPR spectroscopy. The DAP compounds (100 μM) were used to compete with 1 mM DEPMPO for the superoxide ions. SOD (4.2 μM) was used as a positive control.

[9] = test system: A2780 cells; experiment: Intracellular ROS by DCF fluorescence, A2780; assay type: cell-based, human; details: 5 or 10 μM, 12 h
Description: (§3) The ROS levels in cells treated with DAPs were determined using H2DCF-DA, a membrane-permeative fluorogenic probe. The acetate and acetoxymethyl ester groups of this probe are enzymatically cleaved inside living cells. The probe can then be oxidized by intracellular oxidants (ROS) to give a product, DCF, which emits a strong, green fluorescence (λex=504 nm; λem=529 nm). The fluorescence intensity is proportional to the level of cellular oxidants. Cells, grown to 80% confluence on 6-mm glass coverslips, were treated with 10 pM H-4073, HO-3867, H-4318, or HO-4200 for 12 h, followed by incubation with H2DCF-DA. The cells were further incubated in the dark for 20 min and washed with protein-free medium, and then fluorescence images were immediately captured with a Nikon Eclipse TE2000-U camera system using excitation/emission at 495/520 nm. The captured images were then analyzed using MetaMorph image analysis software.

[10] = test system: A2780R, PA-1, SKOV3, OV4, and OVCAR3 human ovarian cancer cell lines; experiment: Cell viability by MTT assay, other ovarian cancer cell lines; assay type: cell-based; details: 10 μmol/L; 24 h
Description: as §2

[11] = test system: HSMC; experiment: Intracellular ROS by DCF fluorescence, HSMC; assay type: cell-based, human; details: 10 μM, 12 h
Description: as §3, with “Cells, grown to 80% confluence on 6-mm glass coverslips, were treated with 10 pM H-4073, HO-3867, H-4318, or HO-4200 for 12 h, followed by incubation with H2DCF-DA.” left out

[12] = test system: hOSE cells, HSMC, and HAEC; experiment: Cytotoxicity of DAPs to noncancerous cells (MTT); assay type: cell-based, human
Description: as §1

Structure (SMILES): CC1(C)CC(C(N)=O)C(C)(C)N1[O] (stereo not shown) [3-CP, 3-carbamoyl proxyl]
cell viability of A2780 and HSMC cells [1]: did not show any significant effect

Structure (SMILES): CC1(C)CC(C(N)=O)C(C)(C)N1O (stereo not shown) [3-CPH, N-hydroxy-3-carbamoyl proxyl]
cell viability of A2780 and HSMC cells [1]: did not show any significant effect

Structure (SMILES): O=C1/C(=C/c2ccccc2F)CNC/C1=C\c1ccccc1F [DAP-F(o)]
IC50 [2]: lower than both cisplatin and curcumin

EPR spectrum (nitroxide signal) after incubation with A2780 cells [6]: did not show any EPR signal
intracellular ROS generation (DCF fluorescence) in HSMC [11]: induced significant ROS generation
Structure (SMILES): O=C1/C(=C/c2ccc(F)cc2)CNC/C1=C\c1ccc(F)cc1 [H-4073, (3E,5E)-3,5-Bis(4-fluorobenzylidene)piperidin-4-one]
cytotoxicity, viability of A2780 cells [3]: significantly higher toxicity when compared with curcumin
cell viability of human cancer cell lines [4]: substantial loss of cell viability; also recorded: higher toxicity compared to HO-3867 or HO-4200
cytotoxicity to hOSE cells [5]: significant cytotoxicity
number of colonies (colony-forming ability) [7]: dose-dependent reduction in the number of colonies
effect on the superoxide adduct level [8]: did not show any significant effect
intracellular ROS generation (DCF fluorescence) in A2780 cells [9]: induced significant ROS generation
cytotoxicity in other human ovarian cancer cell lines [10]: equally and significantly toxic
viability of hOSE cells ([12]; same dose for both compounds): significantly reduced

EPR spectrum (nitroxide signal) after incubation with A2780 cells [6]: did not show any EPR signal
intracellular ROS generation (DCF fluorescence) in HSMC [11]: induced significant ROS generation
Structure (SMILES): O=C1/C(=C/c2ccc(C(F)(F)F)cc2)CNC/C1=C\c1ccc(C(F)(F)F)cc1 [H-4318, (3E,5E)-3,5-bis(4-trifluoromethylbenzylidene)piperidin-4-one]
cell viability of human cancer cell lines [4]: substantial loss of cell viability; also recorded: higher toxicity compared to HO-3867 or HO-4200
effect on the superoxide adduct level [8]: did not show any significant effect
intracellular ROS generation (DCF fluorescence) in A2780 cells [9]: induced significant ROS generation

amounts of ROS in HSMC compared to A2780 cells [11]: significantly lower amounts of ROS
intracellular ROS generation (DCF fluorescence) in HSMC [11]: induced significant ROS generation
Structure (SMILES): CC1(C)C=C(CN2C/C(=C\c3ccc(C(F)(F)F)cc3)C(=O)/C(=C/c3ccc(C(F)(F)F)cc3)C2)C(C)(C)N1O [HO-4200, 1-[(1-oxyl-2,2,5,5-tetramethyl-2,5-dihydro-1H-pyrrol-3-yl)-methyl]-(3E,5E)-3,5-bis(4-trifluoromethylbenzylidene)piperidin-4-one]
cell viability of human cancer cell lines [4]: substantial loss of cell viability
diminution of the DEPMPO-OOH concentration [8]: −50%
intracellular ROS generation (DCF fluorescence) in A2780 cells [9]: induced significant ROS generation
cell viability of noncancerous (healthy) human cell lines ([12]; 10 NM, 24-h incubation): significantly less toxic

Structure (SMILES): COc1cc(/C=C/C(=O)CC(=O)/C=C/c2ccc(O)c(OC)c2)ccc1O [curcumin, Curcumin, reference compound]
cytotoxicity, viability of A2780 cells [3]: dose-dependent cytotoxicity
